This is an account of results in ChEMBL document CHEMBL5678818, “Discovery of potent SOS1 inhibitors that block RAS activation via disruption of the RAS-SOS1 interaction” (Proc Natl Acad Sci U S A, 2019).

Molecules are shown by their SMILES.

Assay [1] has as its target T1, Ephrin type-A receptor 6 (Homo sapiens) (UniProt Q9UF33).
T1 sequence (whole entry): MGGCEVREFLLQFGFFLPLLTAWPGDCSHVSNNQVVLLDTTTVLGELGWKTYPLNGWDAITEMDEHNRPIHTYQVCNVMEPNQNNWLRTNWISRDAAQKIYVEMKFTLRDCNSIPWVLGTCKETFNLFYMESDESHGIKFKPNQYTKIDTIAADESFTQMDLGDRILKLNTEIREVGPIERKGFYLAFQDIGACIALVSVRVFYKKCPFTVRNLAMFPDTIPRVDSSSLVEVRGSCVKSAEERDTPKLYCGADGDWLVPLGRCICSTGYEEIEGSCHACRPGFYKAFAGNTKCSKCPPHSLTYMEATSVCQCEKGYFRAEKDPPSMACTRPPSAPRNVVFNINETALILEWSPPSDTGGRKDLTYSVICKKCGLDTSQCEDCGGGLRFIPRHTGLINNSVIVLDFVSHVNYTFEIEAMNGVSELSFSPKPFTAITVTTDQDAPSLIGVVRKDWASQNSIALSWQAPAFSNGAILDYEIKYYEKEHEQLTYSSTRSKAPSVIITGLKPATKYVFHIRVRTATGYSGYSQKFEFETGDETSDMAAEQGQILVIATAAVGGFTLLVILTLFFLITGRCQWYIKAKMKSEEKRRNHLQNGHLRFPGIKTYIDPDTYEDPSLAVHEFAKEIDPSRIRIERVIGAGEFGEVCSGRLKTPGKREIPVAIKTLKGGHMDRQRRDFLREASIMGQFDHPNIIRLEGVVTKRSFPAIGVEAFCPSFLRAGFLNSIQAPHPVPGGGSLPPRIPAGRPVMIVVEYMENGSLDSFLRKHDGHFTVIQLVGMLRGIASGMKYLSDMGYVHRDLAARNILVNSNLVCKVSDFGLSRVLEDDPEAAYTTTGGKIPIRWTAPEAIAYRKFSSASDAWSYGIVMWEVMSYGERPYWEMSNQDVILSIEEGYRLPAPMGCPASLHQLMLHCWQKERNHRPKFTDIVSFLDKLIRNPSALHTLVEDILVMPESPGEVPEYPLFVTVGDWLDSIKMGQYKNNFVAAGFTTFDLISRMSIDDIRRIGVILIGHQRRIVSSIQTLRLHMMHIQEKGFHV
Kind of assay: Inhibition of EPHA6 (unknown origin) assessed as residual activity at 1000 nM by KINOMEscan analysis relative to control.

For assay [2], the target named is T2, Mitogen-activated protein kinase kinase kinase 2 (Homo sapiens) (UniProt Q9Y2U5).
T2 sequence (whole entry): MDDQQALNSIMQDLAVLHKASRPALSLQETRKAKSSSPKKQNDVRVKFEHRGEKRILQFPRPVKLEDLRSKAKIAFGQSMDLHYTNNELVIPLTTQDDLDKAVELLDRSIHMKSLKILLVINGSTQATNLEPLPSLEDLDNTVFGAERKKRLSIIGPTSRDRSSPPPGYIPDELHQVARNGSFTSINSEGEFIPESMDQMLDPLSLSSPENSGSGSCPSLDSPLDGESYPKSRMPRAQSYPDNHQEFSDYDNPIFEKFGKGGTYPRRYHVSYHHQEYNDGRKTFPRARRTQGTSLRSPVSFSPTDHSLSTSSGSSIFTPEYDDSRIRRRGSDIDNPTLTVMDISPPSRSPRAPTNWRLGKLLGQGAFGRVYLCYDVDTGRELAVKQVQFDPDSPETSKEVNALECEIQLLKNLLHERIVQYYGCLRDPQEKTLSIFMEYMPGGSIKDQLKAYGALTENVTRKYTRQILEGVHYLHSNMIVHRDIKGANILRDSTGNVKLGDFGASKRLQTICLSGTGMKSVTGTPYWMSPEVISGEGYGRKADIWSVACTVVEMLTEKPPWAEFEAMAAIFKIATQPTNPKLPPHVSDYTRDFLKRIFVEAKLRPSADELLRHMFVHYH
Kind of assay: Inhibition of MAP3K2 (unknown origin) assessed as residual activity at 1000 nM by KINOMEscan analysis relative to control.

Assay [3] concerns the target T3, Ephrin type-B receptor 1 (Homo sapiens) (UniProt P54762).
T3 sequence (whole entry): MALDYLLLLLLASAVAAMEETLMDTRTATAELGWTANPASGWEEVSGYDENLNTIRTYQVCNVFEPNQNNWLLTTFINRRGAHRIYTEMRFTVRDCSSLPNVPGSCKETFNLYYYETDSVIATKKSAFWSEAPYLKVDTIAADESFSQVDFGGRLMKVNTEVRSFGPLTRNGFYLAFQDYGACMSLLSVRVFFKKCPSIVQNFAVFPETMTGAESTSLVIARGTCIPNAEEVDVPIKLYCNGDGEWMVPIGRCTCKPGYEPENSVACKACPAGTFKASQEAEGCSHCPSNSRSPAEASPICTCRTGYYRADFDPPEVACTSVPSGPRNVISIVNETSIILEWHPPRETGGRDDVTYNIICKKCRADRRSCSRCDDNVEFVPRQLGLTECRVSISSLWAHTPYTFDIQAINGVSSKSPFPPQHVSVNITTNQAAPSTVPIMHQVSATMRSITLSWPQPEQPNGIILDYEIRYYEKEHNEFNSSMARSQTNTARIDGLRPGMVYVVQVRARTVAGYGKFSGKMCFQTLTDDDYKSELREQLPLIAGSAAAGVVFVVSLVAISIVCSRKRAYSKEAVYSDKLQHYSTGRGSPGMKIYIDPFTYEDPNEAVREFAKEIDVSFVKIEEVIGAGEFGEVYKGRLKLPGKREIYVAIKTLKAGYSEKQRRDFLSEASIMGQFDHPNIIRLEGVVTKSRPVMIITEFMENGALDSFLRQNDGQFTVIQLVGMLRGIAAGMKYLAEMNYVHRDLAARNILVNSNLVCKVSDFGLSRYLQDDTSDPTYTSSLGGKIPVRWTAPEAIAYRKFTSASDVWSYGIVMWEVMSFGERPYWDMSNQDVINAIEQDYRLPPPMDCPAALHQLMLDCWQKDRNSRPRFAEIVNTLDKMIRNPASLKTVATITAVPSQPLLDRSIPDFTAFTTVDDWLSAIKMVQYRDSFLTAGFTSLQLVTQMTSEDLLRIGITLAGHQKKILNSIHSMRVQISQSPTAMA
As to the kind of experiment: Inhibition of EPHB1 (unknown origin) assessed as residual activity at 1000 nM by KINOMEscan analysis relative to control.

The test system of assay [4] is eIF-2-alpha kinase GCN2 (Homo sapiens), Q9P2K8 [S808G]. Kind of assay: Inhibition of GCN2 S808G mutant […] domain (unknown origin) assessed as residual activity at 1000 nM by KINOMEscan analysis relative to control.
Chain of eIF-2-alpha kinase GCN2 (Homo sapiens), Q9P2K8 [S808G] (Q9P2K8 whole entry S808G): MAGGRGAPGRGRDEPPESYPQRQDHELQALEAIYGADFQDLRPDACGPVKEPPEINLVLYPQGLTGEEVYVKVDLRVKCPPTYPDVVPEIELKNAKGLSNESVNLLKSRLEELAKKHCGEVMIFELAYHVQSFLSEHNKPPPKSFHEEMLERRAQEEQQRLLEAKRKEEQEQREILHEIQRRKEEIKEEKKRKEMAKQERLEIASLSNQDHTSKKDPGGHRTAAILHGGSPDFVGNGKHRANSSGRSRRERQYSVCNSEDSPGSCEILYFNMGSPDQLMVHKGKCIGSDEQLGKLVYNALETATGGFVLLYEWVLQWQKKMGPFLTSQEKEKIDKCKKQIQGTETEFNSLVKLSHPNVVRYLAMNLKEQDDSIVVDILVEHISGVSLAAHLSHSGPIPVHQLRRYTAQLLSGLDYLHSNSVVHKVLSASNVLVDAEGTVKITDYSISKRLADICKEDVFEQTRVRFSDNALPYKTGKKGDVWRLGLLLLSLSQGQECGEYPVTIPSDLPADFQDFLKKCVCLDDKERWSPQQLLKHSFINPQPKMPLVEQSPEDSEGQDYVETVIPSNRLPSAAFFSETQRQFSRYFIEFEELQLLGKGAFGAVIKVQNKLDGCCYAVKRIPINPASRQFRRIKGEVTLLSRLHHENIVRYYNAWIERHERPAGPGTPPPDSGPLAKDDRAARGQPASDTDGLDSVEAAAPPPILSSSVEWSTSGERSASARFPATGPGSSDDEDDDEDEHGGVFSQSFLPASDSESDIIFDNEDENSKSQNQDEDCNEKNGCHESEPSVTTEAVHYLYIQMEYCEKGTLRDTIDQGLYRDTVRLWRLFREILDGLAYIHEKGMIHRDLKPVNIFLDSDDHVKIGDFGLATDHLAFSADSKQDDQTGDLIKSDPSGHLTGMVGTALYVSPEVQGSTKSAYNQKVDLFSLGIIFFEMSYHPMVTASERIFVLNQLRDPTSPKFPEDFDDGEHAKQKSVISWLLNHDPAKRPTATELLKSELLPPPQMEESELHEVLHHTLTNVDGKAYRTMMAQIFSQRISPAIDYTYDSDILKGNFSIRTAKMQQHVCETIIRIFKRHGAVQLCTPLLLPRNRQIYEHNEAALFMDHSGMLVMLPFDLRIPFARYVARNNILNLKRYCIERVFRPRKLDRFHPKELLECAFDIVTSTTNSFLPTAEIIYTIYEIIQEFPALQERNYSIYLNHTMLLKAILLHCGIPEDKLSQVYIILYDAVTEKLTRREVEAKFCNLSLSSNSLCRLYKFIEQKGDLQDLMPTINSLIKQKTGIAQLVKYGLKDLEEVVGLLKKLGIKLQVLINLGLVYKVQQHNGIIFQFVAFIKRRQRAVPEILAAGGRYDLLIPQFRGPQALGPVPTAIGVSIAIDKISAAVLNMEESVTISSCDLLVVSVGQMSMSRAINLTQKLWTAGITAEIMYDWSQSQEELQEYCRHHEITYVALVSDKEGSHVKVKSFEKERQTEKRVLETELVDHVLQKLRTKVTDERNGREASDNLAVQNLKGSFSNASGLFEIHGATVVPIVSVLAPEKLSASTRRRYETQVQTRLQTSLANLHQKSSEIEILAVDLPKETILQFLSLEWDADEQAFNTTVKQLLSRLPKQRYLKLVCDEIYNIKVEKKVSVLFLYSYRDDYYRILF

Turning to `COc1cc2nc(C)nc(N[C@H](C)c3cccc(-c4cn[nH]c4)c3)c2cc1OC`, the Activity in assay [1] came out at 96%; in assay [2], 76%; in assay [3], 77%; in assay [4] it was 100%.
In the case of `COc1cc2ncnc(N[C@H](C)c3cccc4ccccc34)c2cc1OC`, the Activity in assay [1] turned out to be 88%; in assay [2], 100%; in assay [3] it was 100%; in assay [4], 100%.
